According to PMC10873978, “Novel tetrahydroisoquinolines as DHFR and CDK2 inhibitors: synthesis, characterization, anticancer activity and antioxidant properties” (BMC Chemistry, 2024):

Legend:
MCF7 cell line = assay: In vitro cytotoxic activity, MTT method, MCF7; type: cell-based, human; details: for IC50: Homo sapiens, MCF7, MCF7 cell line, MTT
Procedure: (§1) Cell lines: The in vitro human breast cancerous cell line (MCF7), lung cancerous cell lines (A549) and normal cell lines were purchased from Serum and Vaccine formulation in Cairo-Egypt.
(§2) In vitro cytotoxic activity of all synthesized compounds against two human breast cell line (MCF7) and lung cell lines (A549) was evaluated according to the MTT method. Firstly, Growth the cell line medium in 96 well tissue culture plate was injected with 10^5 cells/mL (100 uL/plate well) of the cell line and incubated at 37 °C for 24 h to develop a monolayer sheet then the formed growth medium was poured from 96 well microtiter plates after the confluent sheet of cells. […] Secondly, add 0.1 mL of each concentration tetrahydroisoquinoline sample to each plate. The plates were incubated at 37 °C. Thirdly MTT solution (5 mg/mL in PBS) is prepared. Add 20 µL of MTT solution to each well plates. And shaking in 150 rpm for 5 min, to mix the MTT into the media. Then incubate at (37 °C, 5% CO2) for 1–5 h. Finally read the optical density at 560 nm and subtract background at 620 nm.
(§3) In this work, doxorubicin was used as a positive control drug for comparison with the synthesized compounds under the same experimental conditions.

A549 cell line = assay: In vitro cytotoxic activity, MTT method, A549; details: for IC50: Homo sapiens, read-out: IC50 ± SD
Procedure: as §1, §2, §3

[1] = DPPH scavenging antioxidant activity
Procedure: The antioxidant activity of ten compounds was determined using DPPH [32–34]. A solution 1: prepared by dissolving DPPH (0.002 g) in ethanol (50 mL etnanol). Solution 2: prepared by dissolving different weights 0.05, 0.01 g of each sample in 1 mL of DMSO then take 10 µL of each sample solution with 1 mL ethanol. Then mix 1 mL of solution 1 with 1 mL of solution 2 then vortex the resulting mixture in the dark for about 30 min. The absorbance of the mixture was measured by spectrophotometer at λmax = 517 nm against blank 1 mL absolute ethanol and compared to the ascorbic acid (Vitamin C).
Ten newly synthesized compounds were studied as in vitro antioxidants by measuring of their DPPH scavenging activity which is represented as a percentage % [32]^. Results are represented by mean ± SD of three replicates. […] The higher dose concentration of 0.05 μg/mL represents higher antioxidant activity. […] The high antioxidant activity is referred to the presence of C=O, NH2, and OH groups like ascorbic acid which can be easily oxidized and reduced and can be used as antioxidant drugs. (Fig. 8 and Table 9).

CC(=O)C1C(c2ccc(N(C)C)cc2)c2c(C)nc3sc(C(=O)Nc4ccc(Cl)cc4)c(N)c3c2CC1(C)O (centres unmarked) [Compound 8c, 7-Acetyl-1-amino-N-(4-chlorophenyl)-5,8-dimethyl-8-hydroxy-6-(4-N,N-dimethyl-aminophenyl)-6,7,8,9-tetrahydrothieno[2,3-c]isoquinoline-2-carboxamide]
IC50 (MCF7 cell line): 0.215 ± 0.005 µM | Toxicity % (MCF7 cell line; MCF7, Conc. 0.0487 µMol): 26.68% | Viability % (MCF7 cell line; MCF7, Conc. 0.0487 µMol): 73.3223% | Toxicity % (MCF7 cell line; MCF7, Conc. 0.0975 µMol): 30.4566% | Viability % (MCF7 cell line; MCF7, Conc. 0.0975 µMol): 69.5434% | Toxicity % (MCF7 cell line; MCF7, Conc. 0.195 µMol): 40.36% | Viability % (MCF7 cell line; MCF7, Conc. 0.195 µMol): 59.64% | Toxicity % (MCF7 cell line; MCF7, Conc. 0.391 µMol): 60.25% | Viability % (MCF7 cell line; MCF7, Conc. 0.391 µMol): 39.75% | Toxicity % (MCF7 cell line; MCF7, Conc. 0.781 µMol): 70.02% | Viability % (MCF7 cell line; MCF7, Conc. 0.781 µMol): 29.98% | Toxicity % (MCF7 cell line; MCF7, Conc. 1.562 µMol): 85.7% | Viability % (MCF7 cell line; MCF7, Conc. 1.562 µMol): 14.3% | Toxicity % (MCF7 cell line; MCF7, Conc. 3.125 µMol): 96.45% | Viability % (MCF7 cell line; MCF7, Conc. 3.125 µMol): 3.554% | Toxicity % (MCF7 cell line; MCF7, Conc. 6.25 µMol): 96.57% | Viability % (MCF7 cell line; MCF7, Conc. 6.25 µMol): 3.431% | Toxicity % (MCF7 cell line; MCF7, Conc. 12.5 µMol): 97.1% | Viability % (MCF7 cell line; MCF7, Conc. 12.5 µMol): 2.9% | Toxicity % (MCF7 cell line; MCF7, Conc. 25 µMol): 96.94% | Viability % (MCF7 cell line; MCF7, Conc. 25 µMol): 3.064% | Toxicity % (A549 cell line; A549, Conc. 0.04875 µMol): 10.24% | Toxicity % (A549 cell line; A549, Conc. 0.0975 µMol): 14.26% | Toxicity % (A549 cell line; A549, Conc. 0.195 µMol): 18.74% | Viability % (A549 cell line; A549, Conc. 0.195 µMol): 81.26% | Toxicity % (A549 cell line; A549, Conc. 0.391 µMol): 47.14% | Viability % (A549 cell line; A549, Conc. 0.391 µMol): 52.86% | Toxicity % (A549 cell line; A549, Conc. 0.781 µMol): 65.05% | Viability % (A549 cell line; A549, Conc. 0.781 µMol): 34.95% | Toxicity % (A549 cell line; A549, Conc. 1.562 µMol): 75.74% | Viability % (A549 cell line; A549, Conc. 1.562 µMol): 24.26% | Toxicity % (A549 cell line; A549, Conc. 3.125 µMol): 84.18% | Viability % (A549 cell line; A549, Conc. 3.125 µMol): 15.82% | Toxicity % (A549 cell line; A549, Conc. 6.25 µMol): 89.35% | Viability % (A549 cell line; A549, Conc. 6.25 µMol): 10.65% | Toxicity % (A549 cell line; A549, Conc. 12.5 µMol): 96.69% | Viability % (A549 cell line; A549, Conc. 12.5 µMol): 3.314% | Toxicity % (A549 cell line; A549, Conc. 25 µMol): 97% | Viability % (A549 cell line; A549, Conc. 25 µMol): 2.998% | IC50 (A549 cell line): 0.332 ± 0.002 µM

CCOC(=O)CSc1nc(C)c2c(c1C#N)CC(C)(O)C(C(C)=O)C2c1ccc(N(C)C)cc1 (centres unmarked) [Compound 4, Ethyl 2-((7-Acetyl-4-cyano-1,6-dimethyl-6-hydroxy-8-(4-N,N-dimethylamino-phenyl)-5,6,7,8-tetrahydroisoquinolin-3-yl)thio)acetate]
IC50 (MCF7 cell line): 3.074 ± 0.008 µM | Toxicity % (MCF7 cell line; MCF7, 0.0487 µMol): 0.03467% | Viability % (MCF7 cell line; MCF7, 0.0487 µMol): 99.94% | Toxicity % (MCF7 cell line; MCF7, 0.0975 µMol): 0.06434% | Viability % (MCF7 cell line; MCF7, 0.0975 µMol): 99.94% | Toxicity % (MCF7 cell line; MCF7, 0.195 µMol): 0.0817% | Viability % (MCF7 cell line; MCF7, 0.195 µMol): 99.92% | Viability % (MCF7 cell line; MCF7, 0.391 µMol): 100% | Toxicity % (MCF7 cell line; MCF7, 0.781 µMol): 7.925% | Viability % (MCF7 cell line; MCF7, 0.781 µMol): 92.08% | Toxicity % (MCF7 cell line; MCF7, 1.562 µMol): 23.41% | Viability % (MCF7 cell line; MCF7, 1.562 µMol): 76.59% | Toxicity % (MCF7 cell line; MCF7, 3.125 µMol): 36.89% | Viability % (MCF7 cell line; MCF7, 3.125 µMol): 63.11% | Toxicity % (MCF7 cell line; MCF7, 6.25 µMol): 82.07% | Viability % (MCF7 cell line; MCF7, 6.25 µMol): 17.93% | Toxicity % (MCF7 cell line; MCF7, 12.5 µMol): 91.75% | Viability % (MCF7 cell line; MCF7, 12.5 µMol): 8.252% | Toxicity % (MCF7 cell line; MCF7, 25 µMol): 96.81% | Viability % (MCF7 cell line; MCF7, 25 µMol): 3.186% | Toxicity % (A549 cell line; A549, Conc. 0.0487 µMol): 1.8% | Viability % (A549 cell line; A549, Conc. 0.0487 µMol): 98.2% | Toxicity % (A549 cell line; A549, Conc. 0.0975 µMol): 2% | Viability % (A549 cell line; A549, Conc. 0.0975 µMol): 98% | Toxicity % (A549 cell line; A549, Conc. 0.195 µMol): 3.945% | Viability % (A549 cell line; A549, Conc. 0.195 µMol): 96.06% | Toxicity % (A549 cell line; A549, Conc. 0.391 µMol): 21.14% | Viability % (A549 cell line; A549, Conc. 0.391 µMol): 78.86% | Toxicity % (A549 cell line; A549, Conc. 0.781 µMol): 32.54% | Viability % (A549 cell line; A549, Conc. 0.781 µMol): 67.46% | Toxicity % (A549 cell line; A549, Conc. 1.562 µMol): 62.13% | Viability % (A549 cell line; A549, Conc. 1.562 µMol): 37.87% | Toxicity % (A549 cell line; A549, Conc. 3.125 µMol): 70.97% | Viability % (A549 cell line; A549, Conc. 3.125 µMol): 29.03% | Toxicity % (A549 cell line; A549, Conc. 6.25 µMol): 89.19% | Viability % (A549 cell line; A549, Conc. 6.25 µMol): 10.81% | Toxicity % (A549 cell line; A549, Conc. 12.5 µMol): 95.94% | Viability % (A549 cell line; A549, Conc. 12.5 µMol): 4.063% | Toxicity % (A549 cell line; A549, Conc. 25 µMol): 97.28% | Viability % (A549 cell line; A549, Conc. 25 µMol): 2.722% | IC50 (A549 cell line): 0.918 ± 0.002 µM

O=C1O[C@H]([C@@H](O)CO)C(O)=C1O [Vitamin C, ascorbic acid, reference compound]
DPPH scavenging, inhibition (%) ([1]; 0.01 µg/mL): 50.54 ± 2.76% | DPPH scavenging, inhibition (%) ([1]; 0.05 µg/mL): 69.90 ± 3.98%
